Common to all, as to assay type: functional
What all share (details): time 20-24 hrs

Assay [1] relates to Staphylococcus epidermidis. Kind of assay: Antibacterial activity against Staphylococcus epidermidis ATCC 12228 assessed as inhibition of bacterial growth incubated for 20 to 24 hrs by broth micro dilution method.
Assay [2] relates to Pseudomonas aeruginosa. Kind of assay: Antibacterial activity against […] Pseudomonas aeruginosa ATCC 27853 assessed as inhibition of bacterial growth incubated for 20 to 24 hrs by broth micro dilution method.
Assay [3] relates to Enterococcus faecalis. As to the kind of experiment: Antibacterial activity against Enterococcus faecalis ATCC 29212 assessed as inhibition of bacterial growth incubated for 20 to 24 hrs by broth micro dilution method.
In assay [4] the test system is Staphylococcus aureus. Kind of assay: Antibacterial activity against methicillin-resistant Staphylococcus aureus ATCC 43300 assessed as inhibition of bacterial growth incubated for 20 to 24 hrs by broth micro dilution method.
Assay [5] relates to Staphylococcus aureus. Kind of assay: Antibacterial activity against methicillin-resistant Staphylococcus aureus ATCC BAA-1720 assessed as inhibition of bacterial growth incubated for 20 to 24 hrs by broth micro dilution method.
Assay [6] concerns Staphylococcus aureus. As to the kind of experiment: Antibacterial activity against Staphylococcus aureus ATCC 29213 assessed as inhibition of bacterial growth incubated for 20 to 24 hrs by broth micro dilution method.
Assay [7] has as its system Klebsiella pneumoniae. As to the kind of experiment: Antibacterial activity against NDM-1 expressing Klebsiella pneumoniae ATCC BAA 2470 assessed as inhibition of bacterial growth incubated for 20 to 24 hrs by broth micro dilution method.
In assay [8] the test system is Escherichia coli. As to the kind of experiment: Antibacterial activity against NDM-1 expressing Escherichia coli ATCC BAA2469 assessed as inhibition of bacterial growth incubated for 20 to 24 hrs by broth micro dilution method.
In assay [9] the test system is Bacillus subtilis. As to the kind of experiment: Antibacterial activity against Bacillus subtilis CMCC (B) 63501 assessed as inhibition of bacterial growth incubated for 20 to 24 hrs by broth micro dilution method.
Assay [10] concerns Escherichia coli. As to the kind of experiment: Antibacterial activity against Escherichia coli ATCC 25922 assessed as inhibition of bacterial growth incubated for 20 to 24 hrs by broth micro dilution method.
The test system of assay [11] is Enterococcus faecium. As to the kind of experiment: Antibacterial activity against Enterococcus faecium ATCC 49624 assessed as inhibition of bacterial growth incubated for 20 to 24 hrs by broth micro dilution method.
The subject of assay [12] is Acinetobacter baumannii. Kind of assay: Antibacterial activity against multi-drug resistant Acinetobacter baumannii ATCC 19606 assessed as inhibition of bacterial growth incubated for 20 to 24 hrs by broth micro dilution method.
Assay [13] has as its system Enterococcus faecium. Kind of assay: Antibacterial activity against vancomycin resistant Enterococcus faecium ATCC 700221 assessed as inhibition of bacterial growth incubated for 20 to 24 hrs by broth micro dilution method.
Assay [14] concerns Escherichia coli. As to the kind of experiment: Antibacterial activity against Escherichia coli ATCC 8739 assessed as inhibition of bacterial growth incubated for 20 to 24 hrs by broth micro dilution method.
Assay [15] concerns Enterococcus faecium. As to the kind of experiment: Antibacterial activity against vancomycin-resistant Enterococcus faecium clinical isolate assessed as inhibition of bacterial growth incubated for 20 to 24 hrs by broth micro dilution method.
Assay [16] concerns Staphylococcus aureus. As to the kind of experiment: Antibacterial activity against vancomycin-intermediate Staphylococcus aureus Mu50 assessed as inhibition of bacterial growth incubated for 20 to 24 hrs by broth micro dilution method.
Assay [17] deals with Staphylococcus aureus. As to the kind of experiment: Antibacterial activity against methicillin-resistant Staphylococcus aureus ATCC 33592 assessed as inhibition of bacterial growth incubated for 20 to 24 hrs by broth micro dilution method.

As a reminder, the MIC is the least concentration at which growth counts as inhibited.

Take `CCCCCNc1cc(/C=C/c2ccc(N(C)C)cc2)c2ccccc2[n+]1C.[I-]`: the minimum inhibitory concentration (MIC) is 8 µg/mL in assay [1]; greater than 64 µg/mL in [2]; 16 µg/mL in [3]; 8 µg/mL in assay [4]; 8 µg/mL in [5]; 8 µg/mL in [6]. Moreover, the MIC was greater than 64 µg/mL in assay [7]; greater than 64 µg/mL in assay [8]; 8 µg/mL in assay [9]; greater than 64 µg/mL in assay [10]; 8 µg/mL in assay [11]; greater than 64 µg/mL in assay [12]. Moreover, the MIC was 8 µg/mL in [13]; greater than 64 µg/mL in assay [14]; 8 µg/mL in assay [15]; 8 µg/mL in assay [16]; 8 µg/mL in assay [17].

Take `CN(C)c1ccc(/C=C/c2cc(N3CCCCC3)[n+](C)c3ccccc23)cc1.[I-]`: the minimal inhibitory concentration (MIC) in [1] was 1 µg/mL; in assay [2] it was greater than 64 µg/mL; in assay [3], 16 µg/mL; in assay [4], 4 µg/mL; in [5], 4 µg/mL; in assay [6], 2 µg/mL. In addition, the MIC in assay [7] is greater than 64 µg/mL; in [8], 64 µg/mL; in [9] it was 4 µg/mL; in assay [10], 16 µg/mL; in assay [11], 8 µg/mL; in assay [12] it was greater than 64 µg/mL. Further, the MIC in [13] amounted to 2 µg/mL; in assay [14] it was 32 µg/mL; in assay [15], 8 µg/mL; in assay [16] it was 4 µg/mL; in [17] it was 8 µg/mL.

As for `CCCNc1cc(/C=C/c2ccc(N(C)C)cc2)c2ccccc2[n+]1C.[I-]`, the MIC in [1] is 32 µg/mL; in assay [2], greater than 64 µg/mL; in [3], 64 µg/mL; in assay [4] it was 32 µg/mL; in assay [5] it was 16 µg/mL; in assay [6] it was greater than 64 µg/mL. Moreover, the minimal inhibitory concentration (MIC) in assay [7] is greater than 64 µg/mL; in assay [8], greater than 64 µg/mL; in [9] it was 16 µg/mL; in [10] it was greater than 64 µg/mL; in assay [11], 32 µg/mL; in [12] it was greater than 64 µg/mL. The MIC in assay [13] was 16 µg/mL; in assay [14], greater than 64 µg/mL; in assay [15] it was 16 µg/mL; in [16], 32 µg/mL; in assay [17], greater than 64 µg/mL.

Regarding `CN(C)c1ccc(/C=C/c2cc(NCCCc3ccccc3)[n+](C)c3ccccc23)cc1.[I-]`, the MIC in [1] was 4 µg/mL; in assay [2], greater than 64 µg/mL; in assay [3] it was 4 µg/mL; in [4], 4 µg/mL; in assay [5], 4 µg/mL; in assay [6], 4 µg/mL. Moreover, the MIC was greater than 64 µg/mL in assay [7]; greater than 64 µg/mL in [8]; 2 µg/mL in assay [9]; greater than 64 µg/mL in [10]; 4 µg/mL in [11]; greater than 64 µg/mL in assay [12]. The minimal inhibitory concentration (MIC) is 4 µg/mL in assay [13]; greater than 64 µg/mL in assay [14]; 4 µg/mL in [15]; 4 µg/mL in assay [16]; 4 µg/mL in assay [17].

The values above are taken from ChEMBL document CHEMBL5154863, “Design and synthesis of quinolinium-based derivatives targeting FtsZ for antibacterial evaluation and mechanistic study” (Eur J Med Chem, 2022).
